Reference: US10821152B2, “Methods, agents and compositions for treatment of inflammatory conditions” (Betanien Hospital, priority 2014, dated 2020)
Non-standard residues stand in square brackets, D forms with d. Residues, ends and D or L forms follow the SMILES beside them. *: point of attachment. dPhe(4-NHCONH2) = NC(=O)Nc1ccc(C[C@@H](N)C(=O)O)cc1; Dihydroorotyl(S) = O=C1C[C@@H](C(=O)*)NC(=O)N1; dPhe(4-Cl) = N[C@H](Cc1ccc(Cl)cc1)C(=O)O; Phe(4-NH2) = Nc1ccc(C[C@H](N)C(=O)O)cc1; d2Nal = N[C@H](Cc1ccc2ccccc2c1)C(=O)O; Lys(iPr) = CC(C)NCCCC[C@H](N)C(=O)O; d3Pal = N[C@H](Cc1cccnc1)C(=O)O

Key:
Assay type in all cases: in vivo, human
[1] = tested on: patients with risk factors for cardiovascular disease; assay: Cardiovascular and metabolic risk factors in patients offered Degarelix
Excerpt: In our patient group who were offered Degarelix, some patients had risk factors for cardiovascular disease, metabolic syndrome, lipidemia or hypoalphalipoproteinemia (low HDL). None of these patients had recently started medications prior to the GnRH antagonist that could explain the changes in blood pressure, HbA1C, fasting glucose or lipids. See Example 1 for patient information.

[2] = tested on: patient with systemic sclerosis; assay: Treatment of systemic sclerosis; conditions: SSc patient
Excerpt: • person, diagnosed with systemic sclerosis • Fulfilled the 2013 EULAR/ACR classification criteria for systemic sclerosisl. • Diagnosis based upon Raynauds phenomenon, positive ANA, high titre anti-Scl 70 antibodies, marked skin changes typical of scleroderma, and esophageal dysmotility. • Previously tried Cyclophosphamide and Mycophenolate Mofetil. • Progressive disease and worsening scleroderma skin features, despite therapy. • Rapid progressive cardiac disease, verified by biopsy.
Experimental Treatment • 5th December 2014 received first dose of Degarelix 240 mg sc. • 9th January 2015 received second dose of Degarelix 80 mg sc.
[…] They are important factors in patients' evaluations of quality of life2. Their precise objective evaluation can be included in randomized controlled trials3. Their pathogenesis is unclear. Histologically, there is a plug-like hyperkeratosis with parakeratosis, homogenized collagen fibers and perivascular mononuclear cell infiltration4.

[3] = tested on: patient with seropositive rheumatoid arthritis; assay: Treatment of RA using Degarelix 40 mg weekly
Method: • person with seropositive rheumatoid arthritis with disease duration of 22 years. • Fulfilled ACR 2010 classification criteria for rheumatoid arthritis. Experimental Treatment • Had tried most therapies available (for example: Humira, Remicade, Enbrel, Actemra, several disease modifying anti-rheumatic drugs), previously without effect or intolerable side effects. • Offered experimental GnRH antagonist therapy, Degarelix 40 mg every week with 240 mg loading dose at baseline. Assessment of Response • Disease activity score (DAS) reduction from 7.3 to 6.7 at 2 weeks. • A DAS reduction of 0.6 units is defined as a clinical response to treatment (1). • Their ESR has decreased from 62 mm to 38 mm, with a decrease in their CRP from 87 mg/L to 67 mg/L.

CC(=O)N[C@H](Cc1ccc2ccccc2c1)C(=O)N[C@H](Cc1ccc(Cl)cc1)C(=O)N[C@H](Cc1cccnc1)C(=O)N[C@@H](CO)C(=O)N[C@@H](Cc1ccc(NC(=O)[C@@H]2CC(=O)NC(=O)N2)cc1)C(=O)N[C@H](Cc1ccc(NC(N)=O)cc1)C(=O)N[C@@H](CC(C)C)C(=O)N[C@@H](CCCCNC(C)C)C(=O)N1CCC[C@H]1C(=O)N[C@H](C)C(N)=O [Degarelix] (Ac-[d2Nal][dPhe(4-Cl)][d3Pal]S[Phe(4-NH2)](Dihydroorotyl(S))[dPhe(4-NHCONH2)]L[Lys(iPr)]P[dA]-NH2)
fasting glucose ([1]; Patient 1, October 2014): 6.3 mmol/L | fasting glucose ([1]; Patient 1, September 2014): 6.6 mmol/L | metabolic syndrome criteria ([1]; Patient 1, after degarelix treatment): no longer fulfills the criteria for metabolic syndrome | HBA1c (4.3-6.1%) ([1]; Patient 1, at 8 months): 5.7% | HBA1c (4.3-6.1%) ([1]; Patient 1, baseline): 6.4% | blood pressure ([1]; Patient 1, baseline): 151/90 | HBA1c (4.3-6.1%) ([1]; Patient 1, by 2 weeks): 6.1% | fasting glucose (4.0-6.0) ([1]; Patient 4, 3 months after starting Degarelix): 6.6 mmol/L | fasting glucose (4.0-6.0) ([1]; Patient 4, April 2014, before Degarelix): 8.9 mmol/L | fasting glucose (4.0-6.0) ([1]; Patient 4, December 2013, before Degarelix): 8.5 mmol/L | HBA1c (4.3-6.1%) ([1]; Patient 4, baseline): 6.9% | HBA1c (4.3-6.1%) ([1]; Patient 4, by 1 month): 6.6% | HBA1c (4.3-6.1%) ([1]; Patient 4, by 2 months): 6.4% | HBA1c (4.3-6.1%) ([1]; Patient 4, by 4 months): 6.2% | fasting glucose (4.0-6.0) ([1]; Patient 4, by 4 months): 6.0 mmol/L | HBA1c (4.3-6.1%) ([1]; Patient 4, by 12 months): 5.9% | HDL (1.0-2.7 mmol/L) ([1]; Patient 7, baseline September 2014): 0.68 mmol/L | HDL (1.0-2.7 mmol/L) ([1]; Patient 7, by 1 week): 0.73 mmol/L | HDL (1.0-2.7 mmol/L) ([1]; Patient 7, by 2 weeks): 0.75 mmol/L | HDL (1.0-2.7 mmol/L) ([1]; Patient 7, by 3 weeks): 1.13 mmo/L | Digital tip ulcers/pitting scars ([2]; 5 weeks): 2 | Modified Rodnan Skin Score ([2]; 5 weeks): 40 | Sleep ([2]; 5 weeks): 5 hrs/night | VAS Fatigue ([2]; 5 weeks): 75 | VAS Fingertip pain/pitting scars/ulcers ([2]; 5 weeks): 40 | VAS Gastrointestinal Symptoms ([2]; 5 weeks): 80 | VAS Global ([2]; 5 weeks): 40 | VAS Lung/dyspnea ([2]; 5 weeks): 80 | VAS Pain ([2]; 5 weeks): 10 | VAS Raynauds/vascular ([2]; 5 weeks): 40 | Digital tip ulcers/pitting scars ([2]; 6 weeks): 2 | Modified Rodnan Skin Score ([2]; 6 weeks): 40 | Sleep ([2]; 6 weeks): 5.5 hrs/night | VAS Fatigue ([2]; 6 weeks): 60 | VAS Fingertip pain/pitting scars/ulcers ([2]; 6 weeks): 30 | VAS Gastrointestinal Symptoms ([2]; 6 weeks): 60 | VAS Global ([2]; 6 weeks): 40 | VAS Lung/dyspnea ([2]; 6 weeks): 50 | VAS Pain ([2]; 6 weeks): 10 | VAS Raynauds/vascular ([2]; 6 weeks): 30 | fingertip pain score (0-100 mm) ([2]; after 6 weeks of treatment (FIG. 12)): 30 | Digital tip ulcers/pitting scars ([2]; baseline 5.12.14): 5 | HAQ DI ([2]; baseline 5.12.14): 1.88 | Modified Rodnan Skin Score ([2]; baseline 5.12.14): 42 | Sleep ([2]; baseline 5.12.14): 2 hrs/night | VAS Fatigue ([2]; baseline 5.12.14): 100 | VAS Fingertip pain/pitting scars/ulcers ([2]; baseline 5.12.14): 100 | VAS Gastrointestinal Symptoms ([2]; baseline 5.12.14): 100 | VAS Global ([2]; baseline 5.12.14): 100 | VAS Lung/dyspnea ([2]; baseline 5.12.14): 100 | VAS Pain ([2]; baseline 5.12.14): 100 | VAS Raynauds/vascular ([2]; baseline 5.12.14): 100 | fingertip pain score (0-100 mm) ([2]; baseline prior to treatment (FIG. 11)): 100 mm | Disease activity score (DAS) ([3]; at 2 weeks, 240 mg loading, 40 mg weekly): 6.7 | CRP ([3]; baseline): 87 mg/L | Disease activity score (DAS) ([3]; baseline): 7.3 | ESR ([3]; baseline): 62 mm | CRP ([3]; on Degarelix 40 mg weekly): 67 mg/L | ESR ([3]; on Degarelix 40 mg weekly): 38 mm
